From patent US20260015332A1, “SYNTHESIS METHOD AND APPLICATION OF BENZOTHIASELENAZOLE-1-OXIDE COMPOUND AND DERIVATIVE THEREOF” (priority 2022, published 2026)

Target: M^pro protein of SARS-CoV-2 (3CLpro, P132H mutation) (Severe acute respiratory syndrome coronavirus 2, UniProt P0DTD1, P3395H)
Format: biochemical

In the case of O=S1(c2ccccc2)=N[Se]c2ccccc21 (stereo not shown) [Compound 1, 1-phenylbenzo[d][1,3,2]thiaselenazole-1-ketone], the “inhibitory activity against the M^pro protein of SARS-CoV-2 compared with ebselen (EBS) control” value is reported as “superior to that of the ebselen (EBS) control group”.
